One test has as its target T1, SRM (Homo sapiens, UniProt Q9H3Y6).
T1 construct: purchased Carna Biosciences
Nature of the test: Kinase panel profiling at 1 µmol/L (mobility shift assay, Carna). The test is classed as biochemical. To be noted: 1 µmol/L of BTK inhibitor.

A further test addresses T2, FLT1 (Homo sapiens, UniProt P17948).
T2 construct: purchased Carna Biosciences
The test is described as above. It is filed as biochemical. The settings on record: 1 µmol/L of BTK inhibitor.

For the next test, the target named is FGFR2 (Homo sapiens, UniProt P21802). Nature of the test: Kinase enzyme activity assay (mobility shift assay, Carna). The settings on record: for Percentage inhibition of kinase enzyme activity: FGFR2, 1 µmol/L of BTK inhibitor.
Sequence of FGFR2 (P21802 22-821): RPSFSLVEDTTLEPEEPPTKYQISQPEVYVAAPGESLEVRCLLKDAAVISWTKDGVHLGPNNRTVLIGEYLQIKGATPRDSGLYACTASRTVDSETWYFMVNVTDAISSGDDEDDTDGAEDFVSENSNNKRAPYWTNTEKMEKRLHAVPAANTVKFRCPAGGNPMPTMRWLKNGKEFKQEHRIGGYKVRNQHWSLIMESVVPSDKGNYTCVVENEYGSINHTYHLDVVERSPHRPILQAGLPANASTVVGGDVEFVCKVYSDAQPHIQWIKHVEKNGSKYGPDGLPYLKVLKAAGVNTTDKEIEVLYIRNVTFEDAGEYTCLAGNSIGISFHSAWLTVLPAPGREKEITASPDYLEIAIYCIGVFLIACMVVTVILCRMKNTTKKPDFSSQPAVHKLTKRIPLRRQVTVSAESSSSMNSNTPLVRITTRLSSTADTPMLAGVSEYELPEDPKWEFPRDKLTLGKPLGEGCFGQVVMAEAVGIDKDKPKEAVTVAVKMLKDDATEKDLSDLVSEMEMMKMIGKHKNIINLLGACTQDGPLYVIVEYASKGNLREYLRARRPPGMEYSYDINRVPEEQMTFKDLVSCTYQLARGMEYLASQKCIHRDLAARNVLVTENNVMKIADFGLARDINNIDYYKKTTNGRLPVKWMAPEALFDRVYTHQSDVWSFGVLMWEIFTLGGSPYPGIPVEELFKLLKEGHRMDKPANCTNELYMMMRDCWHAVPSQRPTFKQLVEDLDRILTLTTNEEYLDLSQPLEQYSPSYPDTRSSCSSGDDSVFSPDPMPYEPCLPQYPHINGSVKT
A further test addresses T3, PYK2 (Homo sapiens, UniProt Q14289).
T3 construct: purchased Carna Biosciences
In words: Kinase panel profiling at 1 µmol/L (mobility shift assay, Carna). The test is classed as biochemical. To be noted: 1 µmol/L of BTK inhibitor.

The next test addresses T4, PKACα (Homo sapiens, UniProt P17612).
T4 construct: purchased Carna Biosciences
The description is as above. It is filed as biochemical. The settings on record: 1 µmol/L of BTK inhibitor.

The target of another test is T5, MAPKAPK2 (Homo sapiens, UniProt P49137).
T5 construct: purchased Carna Biosciences
T5 sequence (P49137 whole entry): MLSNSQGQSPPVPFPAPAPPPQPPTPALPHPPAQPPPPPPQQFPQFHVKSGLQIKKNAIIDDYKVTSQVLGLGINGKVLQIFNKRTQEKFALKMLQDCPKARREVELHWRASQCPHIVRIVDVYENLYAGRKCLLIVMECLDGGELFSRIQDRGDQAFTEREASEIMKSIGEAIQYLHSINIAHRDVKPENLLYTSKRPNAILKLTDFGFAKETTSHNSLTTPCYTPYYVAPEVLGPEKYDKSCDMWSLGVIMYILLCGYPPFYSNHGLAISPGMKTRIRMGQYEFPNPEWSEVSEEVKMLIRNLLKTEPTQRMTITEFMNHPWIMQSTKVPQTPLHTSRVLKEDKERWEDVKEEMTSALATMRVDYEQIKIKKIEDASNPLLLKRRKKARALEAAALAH
The test is described as above. It is filed as biochemical. The settings on record: 1 µmol/L of BTK inhibitor.

The next test concerns the target T6, CDK6/CycD3 (Homo sapiens, UniProt Q00534).
T6 construct: purchased Carna Biosciences
Described as above. The test is classed as biochemical. The settings on record: 1 µmol/L of BTK inhibitor.

A further test deals with T7, AKT2 (Homo sapiens, UniProt P31751).
T7 construct: purchased Carna Biosciences
T7 sequence (P31751 whole entry): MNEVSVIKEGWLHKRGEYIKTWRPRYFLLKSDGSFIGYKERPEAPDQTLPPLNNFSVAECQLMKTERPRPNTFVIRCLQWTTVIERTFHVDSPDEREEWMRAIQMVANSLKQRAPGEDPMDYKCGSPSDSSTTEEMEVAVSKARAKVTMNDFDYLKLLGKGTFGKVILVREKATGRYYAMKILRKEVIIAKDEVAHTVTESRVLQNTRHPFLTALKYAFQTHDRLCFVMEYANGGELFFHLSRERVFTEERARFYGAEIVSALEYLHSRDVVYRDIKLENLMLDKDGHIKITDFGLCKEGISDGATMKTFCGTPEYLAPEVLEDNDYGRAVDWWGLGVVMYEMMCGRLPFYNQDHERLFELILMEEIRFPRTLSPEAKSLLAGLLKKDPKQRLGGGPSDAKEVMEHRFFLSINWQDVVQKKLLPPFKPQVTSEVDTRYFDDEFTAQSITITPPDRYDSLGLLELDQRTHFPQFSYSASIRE
Described as above. It is filed as biochemical. The settings on record: 1 µmol/L of BTK inhibitor.

The target of the next test is T8, TSSK1 (Homo sapiens, UniProt Q9BXA7).
T8 construct: purchased Carna Biosciences
T8 sequence (Q9BXA7 1-367): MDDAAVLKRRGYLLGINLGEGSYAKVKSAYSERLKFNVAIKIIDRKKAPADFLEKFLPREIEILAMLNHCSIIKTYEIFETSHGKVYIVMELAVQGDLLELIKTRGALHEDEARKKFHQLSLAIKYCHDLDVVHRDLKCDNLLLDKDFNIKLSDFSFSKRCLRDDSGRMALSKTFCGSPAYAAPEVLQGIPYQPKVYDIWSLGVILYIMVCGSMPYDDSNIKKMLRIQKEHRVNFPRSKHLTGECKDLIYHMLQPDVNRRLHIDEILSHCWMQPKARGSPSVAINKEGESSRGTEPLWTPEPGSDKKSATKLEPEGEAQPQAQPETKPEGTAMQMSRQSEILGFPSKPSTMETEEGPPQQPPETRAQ
The description is as above. It is filed as biochemical. To be noted: 1 µmol/L of BTK inhibitor.

The target in a further test is T9, PRKX (Homo sapiens, UniProt P51817).
T9 construct: purchased Carna Biosciences
T9 sequence (P51817 1-358): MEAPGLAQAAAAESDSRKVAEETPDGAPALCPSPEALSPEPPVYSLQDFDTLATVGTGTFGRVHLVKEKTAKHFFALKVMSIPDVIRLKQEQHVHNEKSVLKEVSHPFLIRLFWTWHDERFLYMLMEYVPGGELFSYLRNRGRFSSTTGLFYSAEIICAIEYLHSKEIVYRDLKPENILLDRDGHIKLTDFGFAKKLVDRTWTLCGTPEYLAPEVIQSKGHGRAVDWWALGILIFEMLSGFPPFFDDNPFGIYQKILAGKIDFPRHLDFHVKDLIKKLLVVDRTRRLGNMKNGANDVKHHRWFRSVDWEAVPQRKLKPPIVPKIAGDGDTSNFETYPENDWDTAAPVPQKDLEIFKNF
The test is described as above. To be noted: 1 µmol/L of BTK inhibitor. It is filed as biochemical.

The target in another test is T10, TRKC (Homo sapiens, UniProt Q16288).
T10 construct: purchased Carna Biosciences
T10 sequence (Q16288 32-839): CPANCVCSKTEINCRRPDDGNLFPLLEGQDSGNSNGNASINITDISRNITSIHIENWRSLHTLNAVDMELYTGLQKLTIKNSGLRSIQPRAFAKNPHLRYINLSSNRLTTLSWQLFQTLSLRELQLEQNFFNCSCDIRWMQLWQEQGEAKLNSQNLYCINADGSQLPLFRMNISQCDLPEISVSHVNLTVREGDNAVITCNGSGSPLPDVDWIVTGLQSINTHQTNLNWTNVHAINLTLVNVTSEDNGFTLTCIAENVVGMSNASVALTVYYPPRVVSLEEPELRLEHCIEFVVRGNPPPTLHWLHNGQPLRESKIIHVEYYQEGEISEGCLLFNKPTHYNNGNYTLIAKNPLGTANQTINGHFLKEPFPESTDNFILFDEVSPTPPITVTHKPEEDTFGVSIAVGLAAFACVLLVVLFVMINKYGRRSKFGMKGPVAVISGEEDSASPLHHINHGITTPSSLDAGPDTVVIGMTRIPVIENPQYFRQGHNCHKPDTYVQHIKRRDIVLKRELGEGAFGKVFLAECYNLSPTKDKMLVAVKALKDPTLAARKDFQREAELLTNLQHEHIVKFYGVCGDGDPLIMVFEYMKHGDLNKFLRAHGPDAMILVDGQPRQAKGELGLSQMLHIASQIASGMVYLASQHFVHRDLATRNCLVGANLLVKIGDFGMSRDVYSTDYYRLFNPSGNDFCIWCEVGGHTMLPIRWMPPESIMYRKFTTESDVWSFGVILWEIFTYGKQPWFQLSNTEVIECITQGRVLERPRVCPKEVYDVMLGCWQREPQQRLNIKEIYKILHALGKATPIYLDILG
The test is described as above. It is filed as biochemical. To be noted: 1 µmol/L of BTK inhibitor.

The next test has as its target T11, Haspin (Homo sapiens, UniProt Q8TF76).
T11 construct: purchased Carna Biosciences
T11 sequence (Q8TF76 1-798): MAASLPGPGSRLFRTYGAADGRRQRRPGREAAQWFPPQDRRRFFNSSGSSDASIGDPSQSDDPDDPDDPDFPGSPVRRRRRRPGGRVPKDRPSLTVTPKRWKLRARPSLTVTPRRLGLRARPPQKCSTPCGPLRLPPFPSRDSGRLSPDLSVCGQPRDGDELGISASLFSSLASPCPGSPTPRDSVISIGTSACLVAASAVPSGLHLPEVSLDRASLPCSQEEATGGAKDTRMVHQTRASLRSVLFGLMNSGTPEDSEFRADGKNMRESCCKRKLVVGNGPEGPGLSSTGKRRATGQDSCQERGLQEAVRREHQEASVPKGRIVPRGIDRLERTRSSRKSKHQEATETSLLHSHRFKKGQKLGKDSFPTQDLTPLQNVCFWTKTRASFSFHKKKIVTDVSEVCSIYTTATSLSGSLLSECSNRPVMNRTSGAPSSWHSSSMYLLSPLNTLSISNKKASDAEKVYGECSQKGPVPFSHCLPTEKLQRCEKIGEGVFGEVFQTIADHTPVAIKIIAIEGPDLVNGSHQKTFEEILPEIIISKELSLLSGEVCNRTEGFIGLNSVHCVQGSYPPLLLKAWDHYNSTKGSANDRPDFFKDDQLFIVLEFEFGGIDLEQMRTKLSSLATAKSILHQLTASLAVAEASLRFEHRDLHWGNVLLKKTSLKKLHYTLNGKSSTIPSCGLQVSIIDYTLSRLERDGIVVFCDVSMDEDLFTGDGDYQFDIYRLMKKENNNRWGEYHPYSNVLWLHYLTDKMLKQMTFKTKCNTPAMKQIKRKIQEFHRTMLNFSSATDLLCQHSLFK
The description is as above. The test is classed as biochemical. The settings on record: 1 µmol/L of BTK inhibitor.

The target in a further test is T12, MNK2 (Homo sapiens, UniProt Q9HBH9).
T12 construct: purchased Carna Biosciences
T12 sequence (Q9HBH9 whole entry): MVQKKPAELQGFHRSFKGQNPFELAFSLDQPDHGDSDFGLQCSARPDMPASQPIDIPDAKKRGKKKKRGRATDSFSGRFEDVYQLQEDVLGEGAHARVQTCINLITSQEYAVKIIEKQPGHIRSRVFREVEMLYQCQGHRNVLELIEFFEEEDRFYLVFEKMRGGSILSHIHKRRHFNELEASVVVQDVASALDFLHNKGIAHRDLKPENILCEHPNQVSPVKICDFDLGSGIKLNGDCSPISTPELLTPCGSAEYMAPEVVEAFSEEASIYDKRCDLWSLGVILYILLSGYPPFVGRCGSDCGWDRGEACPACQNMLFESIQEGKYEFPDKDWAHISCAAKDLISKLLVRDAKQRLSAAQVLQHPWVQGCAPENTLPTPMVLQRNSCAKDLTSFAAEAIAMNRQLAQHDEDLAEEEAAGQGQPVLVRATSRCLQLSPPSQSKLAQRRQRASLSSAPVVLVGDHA
The description is as above. The test is classed as biochemical. The settings on record: 1 µmol/L of BTK inhibitor.

T6 sequence (Q00534 whole entry): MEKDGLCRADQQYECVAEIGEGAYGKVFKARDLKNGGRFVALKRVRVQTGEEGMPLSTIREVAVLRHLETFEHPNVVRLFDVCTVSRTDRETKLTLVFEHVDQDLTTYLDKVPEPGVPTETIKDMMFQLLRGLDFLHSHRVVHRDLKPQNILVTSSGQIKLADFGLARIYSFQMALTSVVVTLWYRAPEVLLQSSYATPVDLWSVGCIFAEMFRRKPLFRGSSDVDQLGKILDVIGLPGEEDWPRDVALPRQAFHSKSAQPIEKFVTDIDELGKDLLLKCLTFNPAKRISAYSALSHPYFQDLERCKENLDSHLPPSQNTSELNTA
T6 sequence (P30281 whole entry partner): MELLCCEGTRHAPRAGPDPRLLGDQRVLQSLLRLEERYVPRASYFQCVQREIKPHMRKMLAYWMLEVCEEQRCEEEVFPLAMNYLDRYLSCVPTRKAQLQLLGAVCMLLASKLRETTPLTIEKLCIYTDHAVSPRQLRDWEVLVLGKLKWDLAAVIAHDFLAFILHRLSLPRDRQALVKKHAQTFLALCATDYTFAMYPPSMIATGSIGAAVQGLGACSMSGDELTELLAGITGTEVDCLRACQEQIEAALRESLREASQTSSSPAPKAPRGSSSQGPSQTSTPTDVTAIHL
T2 sequence (P17948 27-1338): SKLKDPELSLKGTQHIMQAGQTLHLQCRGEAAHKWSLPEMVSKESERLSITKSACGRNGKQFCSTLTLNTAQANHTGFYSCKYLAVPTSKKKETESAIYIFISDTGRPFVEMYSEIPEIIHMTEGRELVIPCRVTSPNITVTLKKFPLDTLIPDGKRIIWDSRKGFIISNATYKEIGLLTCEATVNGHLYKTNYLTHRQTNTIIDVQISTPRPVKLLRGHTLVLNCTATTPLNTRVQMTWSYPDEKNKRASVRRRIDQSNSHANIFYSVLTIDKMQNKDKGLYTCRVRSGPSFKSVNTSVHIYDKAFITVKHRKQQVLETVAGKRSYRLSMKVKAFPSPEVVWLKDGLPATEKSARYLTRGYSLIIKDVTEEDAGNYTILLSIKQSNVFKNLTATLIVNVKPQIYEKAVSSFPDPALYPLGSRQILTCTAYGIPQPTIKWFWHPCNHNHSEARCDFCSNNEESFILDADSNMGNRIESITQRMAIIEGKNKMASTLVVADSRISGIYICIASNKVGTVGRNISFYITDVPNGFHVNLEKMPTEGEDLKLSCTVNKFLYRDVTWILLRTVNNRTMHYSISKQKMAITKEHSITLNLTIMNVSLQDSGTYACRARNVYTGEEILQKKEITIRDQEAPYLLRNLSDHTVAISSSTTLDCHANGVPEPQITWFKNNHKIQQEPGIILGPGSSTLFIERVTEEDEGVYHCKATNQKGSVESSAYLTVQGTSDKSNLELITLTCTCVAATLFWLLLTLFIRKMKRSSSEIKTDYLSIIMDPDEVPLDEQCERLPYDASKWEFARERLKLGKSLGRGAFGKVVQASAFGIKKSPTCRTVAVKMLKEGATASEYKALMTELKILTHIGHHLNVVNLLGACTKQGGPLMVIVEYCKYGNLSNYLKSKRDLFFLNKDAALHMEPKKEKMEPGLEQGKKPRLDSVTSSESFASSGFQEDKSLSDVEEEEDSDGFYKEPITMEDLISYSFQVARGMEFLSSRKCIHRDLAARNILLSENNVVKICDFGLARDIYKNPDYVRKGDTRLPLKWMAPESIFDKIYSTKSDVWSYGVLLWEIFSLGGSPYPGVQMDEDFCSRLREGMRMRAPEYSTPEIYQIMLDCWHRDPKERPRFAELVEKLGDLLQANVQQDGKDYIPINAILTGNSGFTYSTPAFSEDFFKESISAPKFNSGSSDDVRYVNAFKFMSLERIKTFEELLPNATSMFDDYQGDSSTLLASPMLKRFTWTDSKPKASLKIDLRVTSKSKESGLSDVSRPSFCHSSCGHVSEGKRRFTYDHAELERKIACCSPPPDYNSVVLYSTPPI

For the compound `C=CC(=O)N1CCC([C@@H]2CCNc3c(C(N)=O)c(-c4ccc(Oc5ccccc5)cc4)nn32)CC1` [zanubrutinib], the “Percentage inhibition of kinase enzyme activity” value (“Percentage inhibition” for short) is 57.79% on SRM, 22.02% at FLT1, 1.70% on FGFR2 and 16.35% at PYK2.
In the case of `CC#CC(=O)N1CCC[C@H]1c1nc(-c2ccc(C(=O)Nc3ccccn3)cc2)c2c(N)nccn12` [acalabrutinib], the “Percentage inhibition” value at SRM is 39.49%; at PKACα it was -5.14%; on MAPKAPK2 it was -20.51%; at FLT1, -1.14%; at FGFR2, -6.22%; on CDK6/CycD3 it was 2.94%. Besides, the “Percentage inhibition” value on PYK2 was -3.55%; on AKT2 it was -2.69%; on TSSK1, -7.15%; at PRKX, -4.59%; on TRKC, 11.12%; at Haspin it was 5.31%. Besides, on MNK2, the “Percentage inhibition” value came out at 12.37%.
As for `COc1ccc(F)cc1C(=O)NCc1ccc(-c2nn([C@@H](C)C(F)(F)F)c(N)c2C(N)=O)cc1` [pirtobrutinib], the “Percentage inhibition” value at SRM was 18.61%; at PKACα, -26.62%; at MAPKAPK2 it was -13.00%; at FLT1 it was 4.85%; on FGFR2, 12.14%; on CDK6/CycD3, -5.97%. For the same compound, the “Percentage inhibition” value at PYK2 was 7.26%; on AKT2, -4.63%; on TSSK1, -0.58%; on PRKX it was 9.51%; on TRKC, 5.23%; on Haspin, -3.18%. The “Percentage inhibition” value on MNK2 is 7.34%.
Broadly, the IC50 is the concentration that inhibits the measured activity by half. As to `O=C(c1ccc(Oc2ccccc2)cc1Cl)c1c[nH]c2ncnc(N[C@@H]3CC[C@@H](CO)OC3)c12` [nemtabrutinib], the “Percentage inhibition” value on SRM is on record as 102.16%; on PKACα, 0.95%; at MAPKAPK2, -7.90%; on FLT1, 87.14%; at FGFR2, 45.29%; at CDK6/CycD3 it was 0.23%. For the same compound, the “Percentage inhibition” value was 100.08% on PYK2; 4.40% on AKT2; 5.68% on TSSK1; 1.65% on PRKX; 99.56% on TRKC; -1.40% on Haspin. On MNK2, the “Percentage inhibition” value stood at 56.12%. The IC50 at FGFR2 amounted to 34 nM.
Consider `C=CC(=O)N1CCC[C@@H](n2nc(-c3ccc(Oc4ccccc4)cc3)c3c(N)ncnc32)C1` [ibrutinib], for which the “Percentage inhibition” value is reported as 102.20% on SRM; -10.78% on PKACα; -12.65% at MAPKAPK2; 72.57% on FLT1; 81.29% on FGFR2; 4.32% on CDK6/CycD3. In addition, the “Percentage inhibition” value on PYK2 is on record as 3.37%; at AKT2, -3.12%; on TSSK1, 9.10%; on PRKX, 0.66%; on TRKC it was 23.90%; at Haspin, 2.53%. The “Percentage inhibition” value at MNK2 stood at 19.75%.
